Data on nine molecules can be found in ChEMBL document CHEMBL2413050, “Design and synthesis of conformationally restricted capsaicin analogues based in the 1, 3, 4-thiadiazole heterocycle reveal a novel family of transient receptor potential vanilloid 1 (TRPV1) antagonists” (Eur J Med Chem, 2013).

Assay [1] has as its target T1, Transient receptor potential cation channel subfamily V member 1 (Rattus norvegicus, UniProt O35433). The assay is described as follows: Antagonist activity at rat TRPV1 receptor expressed in HEK293T cells assessed as inhibition of capsaicin-induced calcium flux after 30 mins by Fluo-4AM based fluorescence assay. Type of assay: cell-based, HEK-293T. For orientation: Calcium assays in cells follow changes in intracellular calcium, usually with a dye or a luminescent sensor.

The target in assay [2] is Transient receptor potential cation channel subfamily V member 1 (Rattus norvegicus) (UniProt O35433). The assay is described as follows: Antagonist activity at rat TRPV1 receptor expressed in HEK293T cells assessed as inhibition of temperature-induced calcium flux at 1 uM after 30 mins by Fluo-4AM based fluorescence assay relative to control. In kind it is cell-based. As to conditions: HEK-293T.
Chain of Transient receptor potential cation channel subfamily V member 1 (Rattus norvegicus) (O35433 whole entry): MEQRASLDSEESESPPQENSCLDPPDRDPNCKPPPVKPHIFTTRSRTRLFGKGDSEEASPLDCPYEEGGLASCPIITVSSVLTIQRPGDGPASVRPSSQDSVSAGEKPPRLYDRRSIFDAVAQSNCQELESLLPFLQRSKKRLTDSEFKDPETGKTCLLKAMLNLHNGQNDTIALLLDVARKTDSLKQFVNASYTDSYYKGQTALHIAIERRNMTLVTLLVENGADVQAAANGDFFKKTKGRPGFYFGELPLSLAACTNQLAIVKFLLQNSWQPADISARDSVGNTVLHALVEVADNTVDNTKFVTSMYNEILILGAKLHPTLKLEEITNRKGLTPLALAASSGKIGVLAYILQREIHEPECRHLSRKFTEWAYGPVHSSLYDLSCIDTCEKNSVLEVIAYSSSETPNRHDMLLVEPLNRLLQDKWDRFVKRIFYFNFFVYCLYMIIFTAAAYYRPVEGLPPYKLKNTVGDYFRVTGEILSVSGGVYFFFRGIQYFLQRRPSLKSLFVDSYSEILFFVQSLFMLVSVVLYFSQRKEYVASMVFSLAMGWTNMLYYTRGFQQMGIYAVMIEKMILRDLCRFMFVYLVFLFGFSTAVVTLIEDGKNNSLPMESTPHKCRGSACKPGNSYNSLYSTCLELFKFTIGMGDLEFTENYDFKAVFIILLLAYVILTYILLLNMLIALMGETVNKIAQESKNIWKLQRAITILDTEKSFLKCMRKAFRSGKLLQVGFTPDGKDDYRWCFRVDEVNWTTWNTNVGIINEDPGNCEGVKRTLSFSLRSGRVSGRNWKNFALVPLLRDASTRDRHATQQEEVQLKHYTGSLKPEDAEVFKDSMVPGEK

Assay [3] addresses T2, Uncharacterized protein (Gallus gallus) (UniProt F1NJH8).
T2 sequence (whole entry): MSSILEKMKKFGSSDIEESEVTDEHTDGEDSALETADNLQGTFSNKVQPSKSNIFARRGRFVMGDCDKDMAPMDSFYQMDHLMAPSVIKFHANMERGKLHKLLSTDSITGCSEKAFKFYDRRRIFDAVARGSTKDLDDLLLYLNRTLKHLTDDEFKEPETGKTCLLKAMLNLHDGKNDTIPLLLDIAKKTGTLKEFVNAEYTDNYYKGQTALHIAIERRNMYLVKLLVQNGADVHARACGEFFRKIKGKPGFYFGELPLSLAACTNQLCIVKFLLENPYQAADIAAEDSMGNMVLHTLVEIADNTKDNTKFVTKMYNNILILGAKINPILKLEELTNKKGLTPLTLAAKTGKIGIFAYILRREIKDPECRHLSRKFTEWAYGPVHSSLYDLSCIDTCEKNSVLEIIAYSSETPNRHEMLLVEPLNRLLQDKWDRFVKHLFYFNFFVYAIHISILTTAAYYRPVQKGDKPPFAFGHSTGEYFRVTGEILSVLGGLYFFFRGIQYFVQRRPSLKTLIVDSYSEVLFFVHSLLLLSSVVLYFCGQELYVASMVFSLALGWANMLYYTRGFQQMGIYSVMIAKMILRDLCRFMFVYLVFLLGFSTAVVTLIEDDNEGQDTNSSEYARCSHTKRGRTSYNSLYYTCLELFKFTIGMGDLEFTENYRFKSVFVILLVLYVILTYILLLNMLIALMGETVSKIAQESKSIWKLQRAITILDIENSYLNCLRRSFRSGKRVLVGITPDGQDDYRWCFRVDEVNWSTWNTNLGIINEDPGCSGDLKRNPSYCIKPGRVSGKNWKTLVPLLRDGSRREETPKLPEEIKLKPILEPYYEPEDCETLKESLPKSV
The assay can be described thus: Antagonist activity at chicken TRPV1 receptor assessed as inhibition of capsaicin-induced calcium flux at 1 uM after 30 mins by cell based Fluo-4AM fluorescence assay relative to control.

The target in assay [4] is Transient receptor potential cation channel subfamily V member 1 (Rattus norvegicus) (UniProt O35433). The assay can be described thus: Antagonist activity at rat TRPV1 receptor expressed in HEK293T cells assessed as inhibition of capsaicin-induced calcium flux at 1 uM after 30 mins by Fluo-4AM based fluorescence assay relative to control. Type of assay: cell-based. As to conditions: HEK-293T.

The target in assay [5] is T1, Transient receptor potential cation channel subfamily V member 1. The assay can be described thus: Antagonist activity at rat TRPV1 receptor expressed in HEK293T cells assessed as inhibition of temperature-induced calcium flux after 30 mins by Fluo-4AM based fluorescence assay. In kind it is cell-based, HEK-293T.

T1 sequence (O35433 whole entry): as the sequence (O35433 whole entry) above

A word on the IC50: it is the concentration that gives 50% inhibition. One may read the inhibition as the change of the read-out against control, counted positive when it falls. As for `CCCCCC(=O)Nc1nnc(-c2ccc(O)c(OC)c2)s1`, the IC50 in assay [1] was determined as 2.61 nM. The results for the inhibition in assay [2], in assay [3] and in assay [4] were 88.8%, 92.6% and 95.5%, respectively.
In the case of `CC(C)(C)c1ccc(NC(=O)N2CCN(c3ncccc3Cl)CC2)cc1`, the inhibition in assay [2] is 66.4%; in assay [3], 8.97%; in assay [4], 92.7%.
Turning to `CCCCCC(=O)Nc1nnc(-c2cc(I)c(O)c(OC)c2)s1`, the IC50 in assay [1] came out at 1.47 nM; in assay [5] it was 0.29 nM. In addition, the inhibition in assay [2] was determined as 94.3%; in assay [3] it was 95.3%; in assay [4], 96.6%.
`CCCCCCCC(=O)Nc1nnc(-c2ccc(O)c(OC)c2)s1`: in assay [1], the IC50 was found to be 0.15 nM. Also, the inhibition in assay [2] is 89.8%; in assay [3] it was 81.2%; in assay [4], 97.7%.
Take `CCCCCCC(=O)Nc1nnc(-c2ccc(O)c(OC)c2)s1`: the half-inhibitory concentration (IC50) in assay [1] turned out to be 0.77 nM. For the same molecule, the results for the inhibition in assay [2] and in assay [4] were 94% and 95.3%, respectively.
Turning to `CCCCCCCCC(=O)Nc1nnc(-c2ccc(O)c(OC)c2)s1`, the IC50 in assay [1] worked out at 0.18 nM; in assay [5] it was 0.05 nM. Besides, the figures for the inhibition in assay [2], in assay [3] and in assay [4] were 92.9%, 79.4% and 98.8%, respectively.
On to `CCCCCCC(=O)Nc1nnc(-c2cc(I)c(O)c(OC)c2)s1`, for which the 50% inhibitory concentration (IC50) in assay [1] was 6.07 nM. The values for the inhibition in assay [2] and in assay [4] were 92.4% and 90.8%, respectively.
Consider `CCCCCCCCC(=O)Nc1nnc(-c2cc(I)c(O)c(OC)c2)s1`, for which the IC50 in assay [1] was 0.34 nM; in assay [5], 0.15 nM. Besides, the inhibition in assay [2] is 91.9%; in assay [3], 80.1%; in assay [4], 96.9%.
For `CCCCCCCC(=O)Nc1nnc(-c2cc(I)c(O)c(OC)c2)s1` the same measures were 0.33 nM, 1.09 nM, 93.7%, 85.4% and 94.5%.
